Converted amounts (≈) assume the structure as drawn. Read-outs that look alike come from different tables or passages of the source.
Columns and labels:
[1] = test system: muscle group (gastrocnemius, plantaris and soleus) of the immobilized right rear extremity; assay: rat muscle function test: direct electrical stimulation of muscle group after 3 weeks' immobilization; format: in vivo, male Wistar rats; details: oral, 1x per day for 3 weeks, as a rule 25 mg/kg, ≤-12% classified as active; for Force (force under the contraction curve, right/left difference): isometric stimulation, control difference approx. 25%; for Work (performed work, right/left difference): isotonic stimulation, control approx. -25%
Text: (§1) 1. Activity in the rat muscle function test
(§2) Male Wistar rats (body weight about 300 g) were kept under standard conditions with feed and water ad libitum. The right rear extremity was immobilized by fitting a kind of "shoe" to the animals under short-term anaesthesia. Two ergonomically fitted halves of the "shoe" were cast from a liquid plastic material which is also used for the production of dental prostheses, these were put onto the animal under brief anaesthesia and joined with the aid of a wire. The material is light but hard, so that the animals cannot gnaw the material, and the "shoe" can be opened at any time to examine the condition of the immobilized extremity. The two halves were moreover padded out with chamois leather in order to avoid compressions and possible injuries due to rubbing. The system also has the advantage that the angle of immobilization is standardized in all animals; this would not be possible with a plaster cast. The chosen angle allows the animals to take up a normal sitting position despite the "shoe" and also to carry the body weight using this extremity. Only complete stretching or bending of the leg is impossible.
(§3) After 3 weeks' immobilization of the right rear extremity and simultaneous oral administration of test preparations (1× per day using a stomach tube; as a rule 25 mg/kg of body weight, in carboxymethylcellulose, the animals were weighed and anaesthetized with pentobarbital (35 mg/kg i.p.). Functional parameters were measured during direct electrical stimulation of a muscle group (gastrocnemius, plantaris and soleus). This muscle group, merely called "muscle" in the following, was exposed at the ankle tendon and tied to a force transducer via the tendon.
To determine the contractile force, the muscles were stimulated isometrically, i.e. a preload of 0.5N was applied and the muscle was stimulated by means of a series of electrical pulses, which led to a maximum contraction, every 0.7 sec for 80 msec for a period of 15 min. […] The area under this contraction curve was evaluated and the difference in percent between the right atrophic and left normal muscle compared (force under the contraction curve as difference in percent (Δ%)). The difference in the control group is approximately 25%.
An isotonic muscle stimulation was used to determine the performed work of the muscle over time. In this type of measurement, the shortening of the muscle during contraction is used as a basis. To this end, a preload which corresponds to the body weight was applied to the muscles. A series of stimulation pulses (80 msec) were triggered every 3 sec and the muscle was stimulated for 15 min. The data (contraction force and distance travelled) were converted to the work performed in the unit J using an automated system. The difference in the work performed between the immobilized atrophic and the normal muscle in the control animals was approximately -25%.
Values which are positive indicate that the functional parameters of the immobilized muscle were better than those of the contralateral normal muscle.

[2] = test system: isolated guinea pig lung strips, Platelet activating factor (PAF); assay: antagonist of PAF-induced contraction of isolated guinea pig lung strips; format: cell-based; details: Cavia porcellus, read-out: Anticontractile action (lung), PAF: concentration range corresponding to the IC50 value
Text: 4. Activity as an antagonist of the contraction of isolated guinea pig lung strips
The test carried out is based on the same principle as the test indicated in the pharmacological test 3; however, lung strips are used here.
Preparation of the organ sections and experimental procedure:
The guinea pig is sacrificed under laughing gas anaesthesia. The entire pulmonary tract is exposed starting from the trachea. The lobes of the lung are cut in a circular fashion such that 3 mm wide strips are formed. The strips of the upper lobes are divided in order to obtain a total of six approximately equal size strips. The strips are suspended in the organ baths under a preload of 4 g. The nutrient solutions used are modified Krebs Henseleit solutions. When using "Platelet activating factor" (PAF) as an […], the composition of this solution corresponds to that for the agonist SP in "Test 3"; for the agonist LTD4 a Krebs Henseleit solution as in the case of the agonist KCl (Test 3) is used. 95% by volume O2, 5% by volume CO2 is used for bubbling through the bath; the bath temperature is 37° C. The experimental procedure is carried out in a therapeutically cumulative methodology, using the dosage graduations 1, 3, 6 and 10 μg/ml.
The experimental animals, organ bath, vehicles and manner of administration correspond to that stated in pharmacological test 3.
All numerical values are indicated in the unit μg/ml and relate to the concentration range of tested compound of the formula I (see example numbers in Table 1) which is necessary in order to cause a contraction which corresponds to the IC50 value.

phosphodiesterase III = assay: inhibition of phosphodiesterase III activity; format: biochemical; details: at 100 μM
Description: 5. Inhibition of phosphodiesterase III activity
The test is carried out using phosphodiesterase from Boehringer Mannheim (Mannheim, Germany), Order No. 108 243 according to the method of T. SAEKI, I. SAITO, Biochem. Pharm. 46, No. 5, […], pages 833-839.
All numerical values are indicated in % inhibition of the enzyme activity at 100 μM of the corresponding compound of the formula I.

soleus muscle = assay: rat muscle function test: muscle weight (atrophy of immobilized extremity); format: in vivo, male Wistar rats; details: oral, 1x per day for 3 weeks, as a rule 25 mg/kg, difference ≤25% classified as an effect
Text: as §1, §2
In spite of this, a significant decrease in the skeletal muscle mass (atrophy) of the immobilized extremity occurred, to be precise up to -35% in comparison with the contralateral nonimmobilized rear extremity. As the soleus muscle was the most severely affected, the changes in muscle weight after administration of preparation shown in Table 1 relate to this muscle. A difference of ≤25% between the right immobilized and left non-immobilized rear extremity was classified as an effect.
as §3

[3] = lung strips, PAF, cumulative, 37° C.

Row | SMILES | Force (force under the contraction curve, right/left difference) [1] | Work (performed work, right/left difference) [1] | IC50 [2] | PDE III Inhibition (phosphodiesterase III) | Muscle weight (right/left difference) (soleus muscle) | IC50 [2, 3]
1 | CCOP(=O)(CCCn1cnc2c1c(=O)n(C)c(=O)n2C)OCC [Example 8, Diethyl [3-(1,3-dimethylxanthin-7-yl)propyl]phosphonate] | -11 Δ % | -7 Δ % | 5 to 10 mg/L (≈ 14 to 27.9 µM) | – | – | –
2 | CCOP(=O)(CCCCn1c(=O)c2c(ncn2CC2CC2)n(C)c1=O)OCC [Example 50, Diethyl [4-(7-cyclopropylmethyl-3-methylxanthin-1-yl)butyl]phosphonate] | – | – | – | 51% | – | –
3 | CCOP(=O)(CCCCn1c(=O)c2c(ncn2CCOC)n(C)c1=O)OCC [Example 31, Diethyl [4-(7-methoxyethyl-3-methylxanthin-1-yl)butyl]phosphonate] | – | – | 6 to 10 mg/L (≈ 14.4 to 24 µM) | – | – | –
4 | CCCn1c(=O)c2c(ncn2CCCCP(=O)(OCC)OCC)n(C)c1=O [Example 13] | +5 Δ % | -3 Δ % | 6 to 10 mg/L (≈ 15 to 25 µM) | – | -24 Δ % | –
5 | CCOP(=O)(CCCCn1c(=O)c2[nH]cnc2n(CC)c1=O)OCC [Example 37, Diethyl [4-(3-ethylxanthin-1-yl)butyl]phosphonate] | – | – | 1 to 3 mg/L (≈ 2.69 to 8.06 µM) | – | – | –
6 | Cn1c(=O)n(CCCCP(=O)(O)O)c(=O)c2[nH]cnc21 [Example 25, Diammonium [4-(3-methylxanthin-1-yl)butyl]phosphonate] | +7 Δ % | -12 Δ % | – | – | – | 5 to 15 mg/L
7 | CCCCn1c(=O)c2c(ncn2CCCCCP(=O)(OCC)OCC)n(CCCC)c1=O [Example 10, Diethyl [5-(1,3-dibutylxanthin-7-yl)pentyl]phosphonate] | +1 Δ % | -9 Δ % | – | – | -13 Δ % | –
8 | CCOCn1cnc2c1c(=O)n(CCCCP(=O)(O)O)c(=O)n2C.N.N [Example 28, Diammonium [4-(7-ethoxymethyl-3-methylxanthin-1-yl)butyl]phosphonate] | – | – | – | – | – | 3 to 9 mg/L
9 | CCOP(=O)(CCCCn1cnc2c1c(=O)n(C)c(=O)n2C)OCC [Example 1, Diethyl [4-(1,3-dimethylxanthin-7-yl)butyl]phosphonate] | – | -8 Δ % | 3 to 9 mg/L (≈ 8.06 to 24.2 µM) | – | – | –
10 | CCOCn1c(=O)c2c(ncn2CCCCP(=O)(OCC)OCC)n(C)c1=O [Example 6, Diethyl [4-(1-ethoxymethyl-3-methylxanthin-7-yl)butyl]phosphonate] | -4 Δ % | -4 Δ % | – | – | 0 Δ % | –
11 | CCOP(=O)(CCCCn1c(=O)c2c(ncn2CCCCP(=O)(OCC)OCC)n(C)c1=O)OCC [Example 7, Diethyl 4-{7-[4-(diethoxyphosphoryl)butyl]-3-methylxanthin-1-yl}butyl-phosphonate] | – | – | 3 to 6 mg/L (≈ 5.45 to 10.9 µM) | – | – | –
12 | CCOCn1cnc2c1c(=O)n(CCCP(=O)(OCC)OCC)c(=O)n2C [Example 36, Diethyl [3-(7-ethoxymethyl-3-methylxanthin-1-yl)propyl]phosphonate] | – | – | 5 to 15 mg/L (≈ 12.4 to 37.3 µM) | – | – | –
13 | CCOP(=O)(CCCCn1cnc2c1c(=O)n(CCCCC(C)(C)O)c(=O)n2C)OCC [Example 5] | +10 Δ % | +10 Δ % | – | – | 0 Δ % | –
14 | CCCCn1c(=O)c2c(ncn2CP(C)(C)=O)n(CCCC)c1=O [Example 67, [1-(1,3-Dibutylxanthin-7-yl)methyl]dimethylphosphine Oxide] | -9 Δ % | -10 Δ % | – | – | – | –
15 | CCOP(=O)(CCCCn1cnc2c1c(=O)[nH]c(=O)n2C)OCC [Example 3, Diethyl [4-(3-methylxanthin-7-yl)butyl]phosphonate] | 0 Δ % | 0 Δ % | – | – | 0 Δ % | –
16 | CCOP(=O)(CCCCCn1c(=O)c2c(ncn2CCC(C)C)n(C)c1=O)OCC [Example 56] | 0 Δ % | 0 Δ % | – | – | – | –
17 | CCCCn1cnc2c1c(=O)n(CP(C)(C)=O)c(=O)n2CCCC [Example 72, [1-(3,7-Dibutylxanthin-1-yl)methyl]dimethylphosphine Oxide] | -2 Δ % | +4 Δ % | – | – | -18 Δ % | –
18 | CP(C)(=O)Cn1c(=O)c2c(ncn2CC2CC2)n(-c2ccccc2)c1=O [Example 71, [1-(7-Cyclopropylmethyl-3-phenylxanthin-1-yl)methyl]dimethylphosphine Oxide] | +4 Δ % | +5 Δ % | – | – | 0 Δ % | –
19 | CCOP(=O)(CCCCn1c(=O)c2c(ncn2CCOC)n(CC)c1=O)OCC [Example 45, Diethyl [4-(3-ethyl-7-methoxyethylxanthin-1-yl)butyl]phosphonate] | – | – | 1 to 3 mg/L (≈ 2.32 to 6.97 µM) | – | – | –
20 | CCOP(=O)(CCCCn1c(=O)c2c(ncn2CCC(C)C)n(C)c1=O)OCC [Example 41, Diethyl {4-[7-(3-methylbutyl)-3-methylxanthin-1-yl)butyl]phosphonate] | – | – | – | 56% | – | –
21 | CCOP(=O)(OCC)C(C)(C)CCCCn1c(=O)c2c(ncn2CCOC)n(C)c1=O [Example 22, Diethyl [5-(7-methoxyethyl-3-methylxanthin-1-yl)-1,1-dimethylpentyl]-phosphonate] | -3 Δ % | -13 Δ % | – | – | 0 Δ % | –
22 | CCOCn1cnc2c1c(=O)n(CCCCP(=O)(OCC)OCC)c(=O)n2C [Example 26, Diethyl [4-(7-ethoxymethyl-3-methylxanthin-1-yl)butyl]phosphonate] | -3 Δ % | -17 Δ % | – | – | -22 Δ % | –
23 | CCOCn1cnc2c1c(=O)n(CCCCP(=O)(OCC)OCC)c(=O)n2Cc1ccccc1 [Example 53, Diethyl [4-(3-benzyl-7-ethoxymethylxanthin-1-yl)butyl]phosphonate] | -3 Δ % | +10 Δ % | 1 to 3 mg/L (≈ 2.03 to 6.09 µM) | – | 0 Δ % | –
24 | CCOCn1cnc2c1c(=O)n(CCCCP(=O)(OCC)OCC)c(=O)n2CC [Example 54, Diethyl [4-(7-ethoxymethyl-3-ethylxanthin-1-yl)butyl]phosphonate] | – | – | 1 to 3 mg/L (≈ 2.32 to 6.97 µM) | – | – | –

Reference: patent US5728686A, “Alkylxanthine phosphonates and alkylxanthine phosphine oxides and their use as pharmaceuticals” (Hoechst Aktiengesellschaft, priority 1996, dated 1998)
